Experimental data taken from patent EP4151646A1, “5-FLUOROURACIL DERIVATIVES AS PRODRUGS FOR CANCER TREATMENT” (Universität Hamburg, priority 2021, dated 2023).

Columns and labels:
Assay type in all cases: cell-based
[1] = tested on: HT29; test: XTT cell viability test on colon cancer cell line HT29; settings: 72 hours incubation
From the text: Three further JW-substances (JW-7, JW-8, JW-9) having the general structure according to formula 1b above with acyloxybenzyl-groups of different lengths (from 4 to 17 carbon atoms), but being asymmetrically substituted (i.e. having different groups R^A1 and R^B1), in four different concentrations (1.11, 3.33, 10 and 30 µmol/l) were investigated. As a comparison, 5-FU was used in the same concentrations. The investigated cell lines were the colon cancer cell lines CaCo2 and HT29.
(§1) The experiments consisted of three steps. On the first day, the cells were planted on 96-well-plates and left for growing and adhering for 24 hours. On the second day, the substances were applied in the known concentrations, diluted in the cell-line specific medium. After an incubation period of 72 hours, XTT-colouring (see, e.g., Roehm NW, Rodgers GH, Hatfield SM, Glasebrook AL, 1991, An improved colorimetric assay for cell proliferation and viability utilizing the tetrazolium salt XTT, J Immunol Methods, 142(2):257-65. doi: 10.1016/0022-1759(91)90114-u) was applied and the absorbance was measured after 6 hours. Table 2. Residues RA1 and RB1 of three further 5-Fluorouracil nucleoside triphosphate prodrugs according to the invention, being asymmetrically substituted with residues RA1 and RB1.

[2] = tested on: SW620; test: XTT cytotoxicity test on colon carcinoma cell line, wider concentration range; settings: 30 µmol in triple dilution up to 0.014 µmol
Experimental: Further investigations were performed in relation these two substances (JW-1 and JW-4). The same procedure as in the first experiments was used, but with a wider concentration range in order to examine the onset of cytotoxicity and the therapeutic range more closely. Thus, JW-1, JW-4 and 5-FU were applied to the cells (colon carcinoma cell line SW620) in the concentrations of 30 µmol in triple dilution up to 0.014 µmol and then examined according to the same scheme. […] A major advantage is, however, their increased therapeutic range. The cytotoxicity threshold is much lower than that of 5-FU. In the case of 5-FU, first cytotoxic effects can be detected between 1 and 3 µmol. In comparison, the threshold for JW-1 and JW-4 is below 1 µmol.
as §1

[3] = tested on: MDA-MB231; test: XTT cytotoxicity test on triple-negative breast carcinoma cell line; settings: 25, 12.5 and 6.25 µmol/l, compared with 5-FU, 72 hours incubation
From the text: In a first approach, six different JW-substances (JW-1, JW-2, JW-3, JW-4, JW-5, JW-6) having the general structure according to formula 1b above with acyloxybenzyl-groups of different lengths (from 8 to 13 carbon atoms) in three different concentrations (25, 12.5 and 6.25 µmol/l) were investigated. As a comparison, 5-FU was used in the same concentrations. The investigated cell line was a triple-negative breast carcinoma (MDA-MB231), see Fig. 2. The treatment of Triple Negative Breast Cancer is not well standardised, however, one of the treatment options includes 5-FU (Yin L, Duan JJ, Bian XW, Yu SC. Triple-negative breast cancer molecular subtyping and treatment progress. Breast Cancer Res. 2020 Jun 9;22(1):61. doi: 10.1186/s13058-020-01296-5. PMID: 32517735; PMCID: PMC7285581). […] Table 1. Residues RA1 and RB1 of six different symmetrically masked 5-Fluorouracil nucleoside triphosphate prodrugs according to the invention.
The experiments consisted of three steps. […] After an incubation period of 72 hours, XTT-colouring (see, e.g., Roehm NW, Rodgers GH, Hatfield SM, Glasebrook AL, 1991, An improved colorimetric assay for cell proliferation and viability utilizing the tetrazolium salt XTT, J Immunol Methods, 142(2):257-65. doi: 10.1016/0022-1759(91)90114-u) was applied and the absorbance was measured after 6 hours. […]

Compound | IC50 ([1]; 1.11, 3.33, 10 and 30 µmol/l) | IC-50 values compared with 5-FU [2] | cytotoxicity threshold (first cytotoxic effects) [2] | cytotoxic effects [3] | other results
O=c1[nH]cc(F)c(=O)[nH]1 [Compound 5-FU, 5-fluorouracil] | – | – | – | – | IC50 ([1]; Homo sapiens, HT-29, 1.11, 3.33, 10 and 30 µmol/l): ~15 µM
C7/C9-TriPPPro [JW-08] | 2 µM | – | – | – | –
C4/C17-TriPPPro [JW-07] | 4 to 5 µM | – | – | – | –
C8-TriPPPro [JW-1] | – | at least as low as 5-FU | below 1 µmol | significantly stronger cytotoxicity | –
C11-TriPPPro [JW-4] | – | at least as low as 5-FU | below 1 µmol | significantly stronger cytotoxicity | –
C10/C12-TriPPPro [JW-09] | 1 to 2 µM | – | – | – | –
